Drawing on patent US10815246B2, “Thailanstatin analogs” (priority 2017, dated 2020), this text covers IC50 for eight compounds.

SMILES strings stand for the structures. Read-outs that look alike come from different tables or passages of the source.

Common to all, as to assay type: cell-based
For one experiment, the system named is PANC 10.05. The experiment in a line: In vitro cytotoxicity on pancreatic cancer cell line (Example 12). Particulars: PANC 10.05 human pancreatic cancer cell line.
For the next experiment, the system named is HCT 116 cells. The experiment in a line: In vitro cytotoxicity, CellTiter-Glo, 72 h (Example 11). The method, then:
Alternatively, the in vitro cytotoxicity of the compounds of the invention may be measured as described in this example. 180 μl of HCT 116 cells (ATCC, Cat # CCL-247) in McCoy's 5a Medium Modified (Sigma-Aldrich®, St. Louis, Mo.)+10% fetal bovine serum were seeded at a density of 5,000 cells/well in a white opaque 96-well plate and incubated for 24 hours at […] in a 5% CO2 incubator. Twenty-four hours post cell seeding, 20 μl of 100× test compounds were diluted such that the final concentrations of the test compounds were in μM concentration. Half log dilutions were used, starting from 10 μM through 0.0001 μM. Puromycin and […]. The cells were incubated with the compounds for 72 hours at […] in a 5% CO2 incubator. After 72 hrs, 100 μl/well of CellTiter-Glo® Luminescent Cell Viability Assay reagent (Promega, Inc., Madison, Wis.; Cat. # G7573) was added to the plates and incubated at room temperature for 30 minutes. The luminescence signals were captured using EnVision 2105 Multimode Plate Reader (PerkinElmer, Waltham, Mass.). The data were analyzed using non-linear regression curve fit (sigmoidal dose response) in GraphPad Prism software (GraphPad Software, La Jolla, Calif.) by plotting the concentration of drug on the X-axis and the mean % inhibition values on the Y-axis.

Another experiment relates to PANC 05.04. Kind of experiment: In vitro cytotoxicity on pancreatic cancer cell line (Example 12). Particulars: PANC 05.04 human pancreatic cancer cell line.
The subject of a further experiment is N87. Kind of experiment: In vitro cytotoxicity of toxin compounds, CellTiter-Glo, three days (Example 12). The settings on record: 72 h. The method, then: (§1) Various cancer cell lines were obtained from the American Type Culture Collection (ATCC®). The cells were cultured in a humidified 5% CO2 incubator in a media consisting of RPMI 1640, L-glutamine, and 10% FBS. The cells were passaged as needed using standard tissue culture techniques. The cells were harvested and plated out into 96-well tissue culture treated plates at a density of 5000 cells per well. After allowing the cells to equilibrate for ˜24 hr in a humidified 5% CO2 incubator, the cells were treated with the test compounds at the indicated concentrations. The cells were exposed to the test compounds for three days with no media change. After the treatment period, CellTiter-Glo® Luminescent Cell Viability Assay reagent solution (Promega, Inc., Madison, Wis.; Cat. # G7573) was introduced to each well. The Cell TiterGlo-containing plates were then read on a SpectroMax® iD3 Multi-Mode Microplate reader (Molecular Devices, LLC, San Jose, Calif.). The degree of luminescence was dictated by the abundance of live cells.
(§2) The following tables summarize the cytotoxicity (IC50), nM, observed for the specified toxin compounds on the indicated cancer cell lines, NCI-H23, DU145, SW480, SKOV3, A549, HT29, SK-MES-1, SKBR3, HCT116, MCF7, N87, and A431 (ATCC designations).
A general note: ATP-based viability assays read luminescence as a measure of living cells.

In a further experiment the test system is MCF7. Described as above. The settings on record: Homo sapiens, 72 h. The method, then: as §1, §2
Another experiment has as its system SW480. The experiment is described as above. Particulars: Homo sapiens, 72 h. The method, then:
as §1, §2

In another experiment the test system is A549. Described as above. Particulars: Homo sapiens, 72 h. The protocol: as §1, §2
The test system of another experiment is SKBR3. The description is as above. Particulars: Homo sapiens, SK-BR-3, 72 h. The protocol:
as §1, §2

For the next experiment, the system named is DU145. The description is as above. The settings on record: Homo sapiens, DU-145, 72 h. The protocol: as §1, §2
For the next experiment, the system named is HCT116. The description is as above. Particulars: Homo sapiens, HCT-116, 72 h. The protocol: as §1, §2
The next experiment concerns NCI-H23. The experiment is described as above. The settings on record: Homo sapiens, 72 h. The protocol:
as §1, §2

The test system of the next experiment is A431. Described as above. The settings on record: Homo sapiens, A-431, 72 h. The method, then:
as §1, §2

For a further experiment, the system named is HT29. The description is as above. Particulars: Homo sapiens, HT-29, 72 h. The protocol: as §1, §2
The test system of a further experiment is SKOV3. Described as above. The settings on record: Homo sapiens, SK-OV-3, 72 h. The protocol: as §1, §2
Another experiment concerns SK-MES-1. The description is as above. The settings on record: Homo sapiens, 72 h; SK-MES-1, three days. The method, then: as §1, §2
The next experiment relates to SK-MEL-1. Kind of experiment: In vitro cytotoxicity of toxin compounds (Example 12, Table 4). The settings on record: Homo sapiens. The method, then: as §1
(§3) Table 4 gives the cytotoxicity data for Compounds 2, 4, and 6 on the indicated cancer cell lines, HL60, KG-1, NCI-H69, SK-MEL-1, HEL-92.1.7, and K562 (ATCC designations).

The test system of the next experiment is NCI-H69. The experiment is described as above. The settings on record: Homo sapiens. The protocol: as §1, §3
The test system of another experiment is HEL-92.1.7. The description is as above. The settings on record: Homo sapiens. The method, then:
as §1, §3

In a further experiment the test system is HL60. Described as above. Particulars: Homo sapiens, HL-60. The protocol:
as §1, §3

The subject of the next experiment is K562. The description is as above. The settings on record: Homo sapiens. The protocol:
as §1, §3

Turning to `COC(=O)C[C@@H]1C[C@@]2(CO2)[C@H](O)[C@@H](/C=C/C(C)=C/C[C@@H]2O[C@H](C)[C@H](NC(=O)/C=C\C(C)c3cc(OC)no3)C[C@@H]2C)O1` (stereo partly drawn) [Compound 5, Methyl 2-((3R, 5S, 7R, 8R)-8-hydroxy-7-((1E, 3E)-5-((2S, 3S, 5R, 6R)-5-((Z)-4-(3-methoxyisoxazol-5-yl)pent-2-enamido)-3,6-dimethyltetrahydro-2H-pyran-2-yl)-3-methylpenta-1,3-dienyl)-1,6-dioxaspiro[2.5]octan-5-yl)acetate], the IC50 (in general, the midpoint of a concentration-inhibition curve) with PANC 10.05 amounted to 19.9 nM; in the experiment on HCT 116 cells (HCT 116 cells, 72 hours, read-out: IC50), 310 nM; in the experiment with PANC 05.04 it was 12 nM.

On to `COc1ccc(C[C@H](N)C(=O)N[C@H]2[C@@H](O)[C@H](n3cnc4c(N(C)C)ncnc43)O[C@@H]2CO)cc1` [Puromycin, reference compound], for which the IC50 in the experiment with HCT 116 cells (Homo sapiens, HCT 116 cells, 72 hours, read-out: IC50) was roughly 250 nM.

As for `COC(=O)C[C@@H]1C[C@@]2(CO2)[C@H](O)[C@@H](/C=C/C(C)=C/C[C@@H]2O[C@H](C)[C@H](NC(=O)/C=C\C(C)n3nc(C)nc3C)C[C@@H]2C)O1` (stereo partly drawn) [Compound 3, Methyl 2-((3R, 5S, 7R, 8R)-7-((1E, 3E)-5-((2S, 3S, 5R, 6R)-5-((Z)-4-(3,5-dimethyl-1H-1,2,4-triazol-1-yl)pent-2-enamido)-3,6-dimethyltetrahydro-2H-pyran-2-yl)-3-methylpenta-1,3-dienyl)-8-hydroxy-1,6-dioxaspiro[2.5]octan-5-yl)acetate], the concentration for half-maximal inhibition (IC50) in the experiment with PANC 10.05 (Panc1005) is greater than 2000 nM; in the experiment with HCT 116 cells (Homo sapiens, HCT-116, 72 h) it was 390 nM; with PANC 05.04 it was 435 nM.

Consider `COC(=O)C[C@@H]1C[C@@]2(CO2)[C@H](O)[C@@H](/C=C/C(C)=C/C[C@@H]2O[C@H](C)[C@H](NC(=O)/C=C\C(C)OC(=O)c3ccc(F)cc3)C[C@@H]2C)O1` (stereo partly drawn) [Compound 2, (Z)-5-((2R, 3R, 5S, 6S)-6-((2E, 4E)-5-((3R, 4R, 5R, 7S)-4-hydroxy-7-(2-methoxy-2-oxoethyl)-1,6-dioxaspiro[2.5]octan-5-yl)-3-methylpenta-2,4-dienyl)-2,5-dimethyltetrahydro-2H-pyran-3-ylamino)-5-oxopent-3-en-2-yl 4-fluorobenzoate], for which the half-maximal inhibitory concentration (IC50) in the experiment on PANC 10.05 (Panc1005) is 21 nM; with HCT 116 cells (Homo sapiens, HCT-116, 72 h), 7 nM; in the experiment on N87 it was 14.9 nM; with MCF7, 32.4 nM; with SW480, 20.2 nM; in the experiment with A549 it was 38.3 nM. In addition, the IC50 with SKBR3 is 166 nM; in the experiment with DU145, 27.5 nM; with HCT116, 8.9 nM; in the experiment with NCI-H23 it was 1.3 nM; in the experiment with A431 it was 9.1 nM; in the experiment on HT29 it was 22.5 nM. The IC50 in the experiment on SKOV3 is 57.2 nM; in the experiment on SK-MES-1, 113 nM; with SK-MEL-1, 3.26 nM; in the experiment with NCI-H69 it was 0.96 nM; in the experiment on HEL-92.1.7, 0.71 nM; with HL60 it was 0.08 nM. Also, the IC50 with K562 was determined as 0.58 nM; in the experiment with PANC 05.04 it was 2 nM.

Take `COC(=O)C[C@@H]1C[C@@]2(CO2)[C@H](O)[C@@H](/C=C/C(C)=C/C[C@@H]2O[C@H](C)[C@H](NC(=O)/C=C\C(C)OC(=O)c3ccccc3)C[C@@H]2C)O1` (stereo partly drawn) [Compound 1, (Z)-5-((2R, 3R, 5S, 6S)-6-((2E, 4E)-5-((3R, 4R, 5R, 7S)-4-hydroxy-7-(2-methoxy-2-oxoethyl)-1,6-dioxaspiro[2.5]octan-5-yl)-3-methylpenta-2,4-dienyl)-2,5-dimethyltetrahydro-2H-pyran-3-ylamino)-5-oxopent-3-en-2-yl benzoate]: the IC50 in the experiment on PANC 10.05 (Panc1005) came out at 65 nM; in the experiment on HCT 116 cells (Homo sapiens, HCT-116, 72 h) it was 19 nM; in the experiment on PANC 05.04 it was 22 nM.

Turning to `COC(=O)C[C@@H]1C[C@@]2(CO2)[C@H](O)[C@@H](/C=C/C(C)=C/C[C@@H]2O[C@H](C)[C@H](NC(=O)/C=C\C(C)COC3(C)COC3)C[C@@H]2C)O1` (stereo partly drawn) [Compound 7, Methyl 2-((3R, 5S, 7R, 8R)-7-((1E, 3E)-5-((2S, 3S, 5R, 6R)-3,6-dimethyl-5-((Z)-4-methyl-5-((3-methyloxetan-3-yl)oxy)pent-2-enamido)tetrahydro-2H-pyran-2-yl)-3-methylpenta-1,3-dien-1-yl)-8-hydroxy-1,6-dioxaspiro[2.5]octan-5-yl)acetate], the IC50 in the experiment on PANC 10.05 (Panc1005) was 98.4 nM; in the experiment with HCT 116 cells (Homo sapiens, HCT-116, 72 h), 300 nM; with PANC 05.04, 22 nM.

Regarding `COC(=O)C[C@@H]1C[C@@]2(CO2)[C@H](O)[C@@H](/C=C/C(C)=C/C[C@@H]2O[C@H](C)[C@H](NC(=O)/C=C\C(C)c3noc(C)n3)C[C@@H]2C)O1` (stereo partly drawn) [Compound 6, Methyl 2-((3R, 5S, 7R, 8R)-7-((1E, 3E)-5-((2S, 3S, 5R, 6R)-3,6-dimethyl-5-((Z)-4-(5-methyl-1,2,4-oxadiazol-3-yl)pent-2-enamido)tetrahydro-2H-pyran-2-yl)-3-methylpenta-1,3-dienyl)-8-hydroxy-1,6-dioxaspiro[2.5]octan-5-yl)acetate], the 50% inhibitory concentration (IC50) came to 10.3 nM with PANC 10.05 (Panc1005); 20 nM in the experiment with HCT 116 cells (Homo sapiens, HCT-116, 72 h); 1.4 nM with N87; 3.8 nM in the experiment on MCF7; 2.7 nM in the experiment on SW480; 4.8 nM with A549. Further, the IC50 in the experiment with SKBR3 stood at 12.3 nM; in the experiment on DU145, 3.3 nM; in the experiment on HCT116, 2 nM; in the experiment with NCI-H23, 0.4 nM; with A431, 1.8 nM; in the experiment on HT29 it was 2.7 nM. In addition, the IC50 worked out at 9.7 nM with SKOV3; 9.3 nM in the experiment with SK-MES-1; 0.78 nM with SK-MEL-1; 0.21 nM in the experiment on NCI-H69; 0.03 nM with HEL-92.1.7; 0.04 nM in the experiment with HL60. The IC50 in the experiment on K562 was determined as 0.09 nM; in the experiment on PANC 05.04 it was 7 nM.

Turning to `COC(=O)C[C@@H]1C[C@@]2(CO2)[C@H](O)[C@@H](/C=C/C(C)=C/C[C@@H]2O[C@H](C)[C@H](NC(=O)/C=C\C(C)c3ccon3)C[C@@H]2C)O1` (stereo partly drawn) [Compound 4, Methyl 2-((3R, 5S, 7R, 8R)-8-hydroxy-7-((1E, 3E)-5-((2S,3S,5R,6R)-5-((Z)-4-(isoxazol-3-yl)pent-2-enamido)-3,6-dimethyltetrahydro-2H-pyran-2-yl)-3-methylpenta-1,3-dien-1-yl)-1,6-dioxaspiro[2.5]octan-5-yl)acetate], the IC50 in the experiment on PANC 10.05 (Panc1005) is 7.19 nM; in the experiment on HCT 116 cells (Homo sapiens, HCT-116, 72 h), 330 nM; in the experiment with N87, 1.6 nM; in the experiment on MCF7, 2.1 nM; in the experiment on SW480, 2.2 nM; in the experiment on A549, 2.8 nM. Further, the 50% inhibitory concentration (IC50) with SKBR3 is 9.5 nM; with DU145 it was 1.9 nM; with HCT116, 1 nM; in the experiment on NCI-H23, 0.2 nM; in the experiment on A431 it was 0.7 nM; in the experiment with HT29, 1.3 nM. Further, the half-maximal inhibitory concentration (IC50) in the experiment on SKOV3 stood at 6.7 nM; with SK-MES-1, 7.5 nM; in the experiment on SK-MEL-1, 0.42 nM; in the experiment on NCI-H69, 0.63 nM; with HL60, 0.05 nM; in the experiment with K562, 0.11 nM. This compound registered an IC50 with PANC 05.04 of 4 nM.
